This passage reports EC50 results from US9708321B2, “Spiro-quinazolinone derivatives and their use as positive allosteric modulators of mGluR4” (Merck Patent GmbH, priority 2013, dated 2017).

For one test, the target named is T1, hmGluR4 (Homo sapiens, UniProt Q14833).
T1 construct: host or cells: HEK293T
T1 sequence (Q14833 33-912): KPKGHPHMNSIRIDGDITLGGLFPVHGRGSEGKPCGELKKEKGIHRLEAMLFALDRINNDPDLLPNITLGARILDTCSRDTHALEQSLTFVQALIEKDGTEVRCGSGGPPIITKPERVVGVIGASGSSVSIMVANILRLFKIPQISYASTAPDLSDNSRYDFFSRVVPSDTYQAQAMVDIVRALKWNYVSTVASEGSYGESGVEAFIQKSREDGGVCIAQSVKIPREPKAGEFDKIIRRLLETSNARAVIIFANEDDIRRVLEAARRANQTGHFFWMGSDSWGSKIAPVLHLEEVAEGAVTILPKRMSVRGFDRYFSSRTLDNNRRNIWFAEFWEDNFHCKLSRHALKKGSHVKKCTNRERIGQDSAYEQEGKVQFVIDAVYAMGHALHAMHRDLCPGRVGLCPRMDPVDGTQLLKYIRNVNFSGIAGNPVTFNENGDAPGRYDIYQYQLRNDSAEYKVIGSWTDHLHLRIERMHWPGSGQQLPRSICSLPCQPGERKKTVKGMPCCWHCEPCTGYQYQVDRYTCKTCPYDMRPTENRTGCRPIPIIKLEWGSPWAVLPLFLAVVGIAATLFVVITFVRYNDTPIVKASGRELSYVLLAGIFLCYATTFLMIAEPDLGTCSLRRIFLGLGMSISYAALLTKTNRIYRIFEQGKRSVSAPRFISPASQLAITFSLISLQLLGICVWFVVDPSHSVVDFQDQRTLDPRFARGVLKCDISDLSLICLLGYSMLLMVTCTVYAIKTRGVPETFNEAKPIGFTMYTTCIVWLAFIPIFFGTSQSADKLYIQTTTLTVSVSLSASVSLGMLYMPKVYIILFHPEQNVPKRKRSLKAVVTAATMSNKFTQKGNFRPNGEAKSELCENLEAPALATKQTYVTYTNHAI
Description: HEK-293 mGluR4 cells cAMP assay with EC20 L-Glutamate (HTRF).
Conditions: not given
It counts as cell-based. Here is the method:
II. Biological Assays HEK-293 mGluR4 Cells cAMP Assay with EC20 L-Glutamate
Using mGluR4 suspension cell format, 10 μM Forskolin (final conc.) used to induce the production of cAMP.
Test the positive allosteric activity of the compounds of the invention at EC20 (2.3 μM for mGluR4 and 4.3 μM for mGluR6) L-Glutamate,
cAMP dymanic2 kit is intended for the direct quantitative determination of cAMP and its principle is based on HTRF technology.
• Cells: HEK293T mGluR4 cells from Multispan, cat# C1191a lot# C1191a-040910 • Culture Media: DMEM+GlutaMAX1+10% dialyzed FBS, 100 mM Sodium Pyruvate, 1 ug/ml puromycin. • Glutamine Starvation Media: DMEM without GlutaMax for plating the cells (glutamine starvation overnight). DMEM high Glucose, without phenol red, glutamine, or sodium pyruvate+10% dialyzed FBS, 100 mM Sodium Pyruvate, 1 ug/ml puromycin, 10 mM Hepes. • Hanks' balanced Salt Solution, HBSS from Invitrogen • Greiner 384 well white low volume high base plate (784075) • cAMP dynamic2 from Cisbio Bioassays • Glutamate: L-Glutamaic acid, monosodium salt, Monohydrate, 98%, from Sigma-Aldrich • Cell Preparation: split cells at 80%-90% confluence. The following day, rinse the cells with DMEM without GlutaMax and change to Glutamine Starvation Media. Incubate overnight. Assay: • Prepare compound plate: Perform compound serial dilution (uses Matrix 4341 plate), using the Bravo liquid handling platform protocol (compound serial dilution) which adds DMSO to columns 1-24 (except cols. 3 and 13). Serial dilute compounds located in columns 3 and 13 at a 1:3 ratio; 10 points (10 ul of 3 mM compound into 20 ul DMSO). Use the Bravo liquid handling platform to transfer 1 ul from the serial dilution plate into Matrix 4314 plate to create stamp plates. Prepare Compound Dilution Buffer: • Dilute 20 mM Forskolin (in DMSO) stock solution in HBSS buffer to make a 20 uM solution (forskolin buffer; 2× solution). To the forskolin buffer, add glutamate to a concentration of 8 uM (compound dilution buffer; 2× EC20 glutamate and forskolin). • Using a multidrop, add 50 ul/well of compound dilution buffer to columns 1-22 of the 2 ul compound stamp plate. Columns 23 and 24 receive forskolin buffer containing 400 uM glutamate (EC100 glutamate; 2× solution). Columns 1 and 2 receive compound dilution buffer containing EC20 glutamate, which is the basal control. • Add a glutamate dose response to row P of compound plate. Prepare the dose response by serial diluting glutamate at a 1:3 ratio in forskolin buffer starting at 2 mM glutamate (2×). Dilute the glutamate 9 times and transfer to compound plate. Prepare Cell Plates: • Harvest cells: Rinse cells with pre-warmed HBSS-10 mM HEPES (without Ca Mg) and dissociate the cells from the flask with versene. Centrifuge the cells, remove the supernatant and suspend in pre-warmed HBSS+10 mM Hepes. Count the cells and centrifuge. Remove the supernatant and suspend the cells in HBSS+Hepes (with Ca Mg) at a density of 400,000 cells/ml. Perform Assay: • Dispense 5 ul from the diluted compound plate into Greiner low volume cell plate using the Bravo liquid handling platform. Using a Multidrop with the small tubing cassette, dispense 5 ul of cells (2000 cells/well) onto the compounds contained in the low volume plates. Incubate the cells at 37° C., 5% CO2 for 30 minutes in the incubator. Assay for cAMP: • Prepare cAMP-d2 and anti-cAMP-Crytate according to the instructions for the two step assay (see Cisbio manual) and add 10 ul of the mixed reagent to each well of the assay plate using the Multidrop. Incubate at room temperature for 60 minutes and read on the Envision plate reader using the mGluR low volume cAMP HTRF 384 well protocol.
(Changes in cAMP serve as a functional read-out for many G protein-coupled receptors.)
For the compound `COc1ccc(N2C(=O)c3ccccc3CC23CCN(Cc2ccc(F)c(F)c2)CC3)cc1` [Compound 126, 1′-(3,4-difluorobenzyl)-2-(4-methoxyphenyl)-2,4-dihydro-1H-spiro[isoquinoline-3,4′-piperidin]-1-one], the EC50 fell in the range of 1000 to 10000 nM.

Staying with this test, now noted: positive allosteric activity at EC20 L-Glutamate, 10 μM Forskolin, HEK293T mGluR4 cells, cAMP HTRF; read-out: hrmGluR4/HEK293T-hmGluR4 (EC50).
On to `COCCOc1ccc(N2C(=O)c3ccc(F)cc3NC23CN(Cc2ccc(Cl)cc2)C3)cc1` [Compound 123, 1-(4-Chlorobenzyl)-7′-fluoro-3′-(4-(2-methoxyethoxyl)phenyl)-1′H-spiro[azetidine-3,2′-quinazolin]-4′(3′H)-one], for which the EC50 was 1000 to 10000 nM.

Consider `COc1ccc(N2C(=O)c3ccc(F)cc3NC23CCN(Cc2ccc(F)c(F)c2)CC3)cc1` [Compound 23, 1-(3,4-Difluorobenzyl)-7′-fluoro-3′-(4-methoxyphenyl)-1′H-spiro[piperidine-4,2′-quinazolin]-4′(3′H)-one], for which the EC50 was less than 1000 nM.

As to `O=C1c2ccc(Br)cc2NC2(CCN(Cc3ccc(F)c(F)c3)CC2)N1c1ccc(OC(F)(F)F)c(Cl)c1` [Compound 102, 7′-Bromo-3′-(3-chloro-4-(trifluoromethoxy)phenyl)-1-(3,4-difluorobenzyl)-1′H-spiro[piperidine-4,2′-quinazolin]-4′(3′H)-one], the EC50 fell in the range of 1000 to 10000 nM.

Regarding `COc1ccc(N2C(=O)c3ccccc3NC23CN(Cc2cccc(F)c2)C3)cc1` [Compound 93, 1-(3-Fluorobenzyl)-3′-(4-methoxyphenyl)-1′H-spiro[azetidine-3,2′-quinazolin]-4′(3′H)-one], the EC50 lay within 1000 to 10000 nM.

For `CC(c1ccc(F)cc1)N1CC2(C1)Nc1cc(F)ccc1C(=O)N2c1ccc(OC(F)(F)F)cc1` (centres unmarked) [Compound 82, 7′-Fluoro-1-(1-(4-fluorophenyl)ethyl)-3′-(4-(trifluoromethoxy)phenyl)-1′H-spiro[azetidine-3,2′-quinazolin]-4′(3′H)-one], the EC50 lay within 1000 to 10000 nM.

Turning to `O=C1c2ccc(F)cc2NC2(CCN(Cc3ccc(F)c(F)c3)CC2)N1c1ccc(OC(F)(F)F)cc1` [Compound 69, 1-(3,4-Difluorobenzyl)-7′-fluoro-3′-(4-(trifluoromethoxy)phenyl)-1′H-spiro[piperidine-4,2′-quinazolin]-4′(3′H)-one], the EC50 lay in the range of 1000 to 10000 nM.

For the compound `COc1ccc(N2C(=O)c3ccccc3NC23CN(Cc2cccc(Cl)c2)C3)cc1` [Compound 76, 1-(3-Chlorobenzyl)-3′-(4-methoxyphenyl)-1′H-spiro[azetidine-3,2′-quinazolin]-4′(3′H)-one], the EC50 was in the range of 1000 to 10000 nM.

Consider `O=C1c2ccc(Br)cc2NC2(CCN(Cc3ccccc3OC(F)(F)F)CC2)N1c1ccc(OC(F)(F)F)cc1` [Compound 46, 7′-Bromo-1-(2-(trifluoromethoxy)benzyl)-3′-(4-(trifluoromethoxy)phenyl)-1′H-spiro[piperidine-4,2′-quinazolin]-4′(3′H)-one], for which the EC50 is less than 1000 nM.

As for `Cc1ccc(CN2CCC3(CC2)Nc2cc(Br)ccc2C(=O)N3c2ccc(OC(F)(F)F)cc2)o1` [Compound 113, 7′-Bromo-1-((5-methylfuran-2-yl)methyl)-3′-(4-(trifluoromethoxy)phenyl)-1′H-spiro[piperidine-4,2′-quinazolin]-4′(3′H)-one], the EC50 lay within 1000 to 10000 nM.

On to `COc1ccc(N2C(=O)c3ccc(-c4cccnc4)cc3NC23CCN(Cc2ccc(F)c(F)c2)CC3)cc1` [Compound 40, 1-(3,4-Difluorobenzyl)-3′-(4-methoxyphenyl)-7′-(pyridin-3-yl)-1′H-spiro[piperidine-4,2′-quinazolin]-4′(3′H)-one], for which the EC50 is less than 1000 nM.

As for `O=C1c2ccc(Br)cc2NC2(CCN(Cc3ccccc3)CC2)N1c1ccc(Cl)cc1` [Compound 71, 1-Benzyl-7′-bromo-3′-(4-chlorophenyl)-1′H-spiro[piperidine-4,2′-quinazolin]-4′(3′H)-one], the EC50 lay in the range of 1000 to 10000 nM.

Turning to `COc1ccc(N2C(=O)c3ccccc3NC23CN(Cc2ccc4ccccc4c2)C3)cc1` [Compound 90, 3′-(4-Methoxyphenyl)-1-(naphthalen-2-ylmethyl)-1′H-spiro[azetidine-3,2′-quinazolin]-4′(3′H)-one], the EC50 is 1000 to 10000 nM.

On to `N#Cc1cccc(CN2CCC3(CC2)Nc2cc(C(F)(F)F)ccc2C(=O)N3c2ccc(OC(F)(F)F)cc2)c1` [Compound 42, 3-((4′-Oxo-3′-(4-(trifluoromethoxy)phenyl)-7′-(trifluoromethyl)-3′,4′-dihydro-1′H-spiro[piperidine-4,2′-quinazolin]-1-yl)methyl)benzonitrile], for which the EC50 is less than 1000 nM.

As to `COc1ccc(N2C(=O)c3ccccc3NC23CN(Cc2ccccc2C)C3)cc1` [Compound 94, 3′-(4-Methoxyphenyl)-1-(2-methylbenzyl)-1′H-spiro[azetidine-3,2′-quinazolin]-4′(3′H)-one], the EC50 lay in the range of 1000 to 10000 nM.

With `CCc1ccc(CN2CC3(C2)Nc2ccccc2C(=O)N3c2ccc(OC)cc2)cc1` [Compound 112, 1-(4-Ethylbenzyl)-3′-(4-methoxyphenyl)-1′H-spiro[azetidine-3,2′-quinazolin]-4′(3′H)-one], the EC50 fell in the range of 1000 to 10000 nM.

As for `O=C1c2ccc(Br)cc2NC2(CCN(C(c3ccc(F)c(F)c3)C(F)(F)F)CC2)N1c1ccc(OC(F)(F)F)cc1` (centres unmarked) [Compound 107, 7′-Bromo-1-(1-(3,4-difluorophenyl)-2,2,2-trifluoroethyl)-3′-(4-(trifluoromethoxy)phenyl)-1′H-spiro[piperidine-4,2′-quinazolin]-4′(3′H)-one], the EC50 is less than 1000 nM.

Turning to `COc1ccc(N2C(=O)c3cc(O)ccc3NC23CCN(Cc2ccc(F)c(F)c2)CC3)cc1` [Compound 122, 1-(3,4-Difluorobenzyl)-6′-hydroxy-3′-(4-methoxyphenyl)-1′H-spiro[piperidine-4,2′-quinazolin]-4′(3′H)-one], the EC50 lay within 1000 to 10000 nM.

Regarding `CCOC(=O)c1ccc2c(c1)NC1(CN(C(C)c3ccccc3Cl)C1)N(c1ccc(OC(F)(F)F)cc1)C2=O` (centres unmarked) [Compound 30, Ethyl 1-(1-(2-chlorophenyl)ethyl)-4′-oxo-3′-(4-(trifluoromethoxy)phenyl)-3′,4′-dihydro-1′H-spiro[azetidine-3,2′-quinazoline]-7′-carboxylate], the EC50 was less than 1000 nM.

For `O=C1c2ccc(F)cc2NC2(CN(C(c3cccc(F)c3)C(F)(F)F)C2)N1c1ccc(OC(F)(F)F)cc1` (centres unmarked) [Compound 53, 7′-Fluoro-1-(2,2,2-trifluoro-1-(3-fluorophenyl)ethyl)-3′-(4-(trifluoromethoxy)phenyl)-1′H-spiro[azetidine-3,2′-quinazolin]-4′(3′H)-one], the EC50 is less than 1000 nM.

Take `CCc1ccc2c(c1)NC1(CCN(Cc3ccc(F)c(F)c3)CC1)N(c1ccc(OC)cc1)C2=O` [Compound 63, 1-(3,4-Difluorobenzyl)-7′-ethyl-3′-(4-methoxyphenyl)-1′H-spiro[piperidine-4,2′-quinazolin]-4′(3′H)-one]: the EC50 is less than 1000 nM.

For `COc1ccc(N2C(=O)c3ccccc3NC23CCN(Cc2ccc(F)cc2)CC3)cc1` [Compound 114, 1-(4-Fluorobenzyl)-3′-(4-methoxyphenyl)-1′H-spiro[piperidine-4,2′-quinazolin]-4′(3′H)-one], the EC50 fell in the range of 1000 to 10000 nM.

Consider `COc1ccc(N2C(=O)c3ccc(OC)cc3NC23CCN(Cc2cccc(F)c2)CC3)cc1` [Compound 68, 1-(3-Fluorobenzyl)-7′-methoxy-3′-(4-methoxyphenyl)-1′H-spiro[piperidine-4,2′-quinazolin]-4′(3′H)-one], for which the EC50 is 1000 to 10000 nM.
